Experimental data as given in patent publication US7595395B2, “Gabaergic agents to treat memory deficits” (priority 2005, dated 2009).

Tested on: C57B1/6 mice
Assay: Pavlovian fear conditioning, contextual memory, scopolamine impairment
Format: in vivo
Conditions: for fear conditioned contextual memory, impairment by scopolamine (in words): 10 mg/kg compound, 1 mg/kg scopolamine, mouse; for reversal of scopolamine induced memory deficits (in words): mice, dose not stated
Description: Because the hippocampus is involved in the regulation of events underlying learning and memory, α5 subtype selective agents were evaluated for their ability to modulate hippocampal-dependent and hippocampal-independent forms of memory using Pavlovian fear conditioning paradigms with mice or rats. The protocols for these studies were reported in references Bailey, D. J., Tetzlaff, J. E., Cook, J. M., He, X. H. and Helmstetter, F. J., “Effects of Hippocampal Injections of A Novel Ligand Selective for the Alpha 5 Beta 2 Gamma 2 Subunits of the GABA/Benzodiazepine Receptor on Pavlovian Conditioning,” Neurobiol. Learn. Mem., 78, 1-10 (2002); Delorey, T. M., Lin, R. C., Mcbrady, B., He, X. H., Cook, J. M., Lameh, J. and Loew, G. H., “Influence of Benzodiazepine Binding Site Ligands on Fear-Conditioned Contextual Memory,” Eur. J. Pharmacol., 426, 45-54 (2001).
Further, animal data for FIGS. 22-26 were obtained using experimental methodologies described in a previously published reference, Influence of benzodiazepine binding site ligands on fear-conditioned contextual memory European journal of Pharmacology, Volume 426, Issues 1-2, 24 Aug. 2001, Pages 45-54, Timothy M. DeLorey, Richard C. Lin, Brian McBrady, Xiaohui He, James M. Cook, Jelveh Lameh and Gilda H. Loew, which is incorporated by reference as if fully set forth here in its entirety. Selected sections of the reference are provided below:
Male C57B1/6 mice were obtained from Charles Rivers Laboratories (Holister, Calif.) at 6 weeks of age. Mice used in fear conditioning were between 7 and 12 weeks of age. Animals were housed eight to a cage in rooms with a normal 12-h light/12-h dark cycle (lights on 700-1900 h) with free access to food and water. Tests were conducted during the light phase between 1300 and 1700 h with a 20-min acclimation period in the testing room prior to drug or vehicle administration. All animal protocols used in this study conform to the guidelines determined by the National Institute of Health (USA) Office for Protection from Research Risks and are approved by the Animal Care and Use Committee of the Palo Alto Veterans Administration Medical Center, Palo, Alto, Calif. (USA).
Before testing each day, the mice were moved to a holding room and allowed to acclimate for at least 30 min. Each mouse received an i.p. injection of one of the following: vehicle, benzodiazepine binding site ligand (2-30 mg/kg), scopolamine (1 mg/kg), methylscopolamine (1 mg/kg) or scopolamine (1 mg/kg) combined with one of the benzodiazepine binding site ligands (2-30 mg/kg). The dose level chosen for each compound was one that neither elicited convulsions nor impaired locomotion. Twenty minutes after injection, the mice were placed individually in one of four identical experimental chambers (Med Associates, St. Albans, Vt.) that had been scented with 0.3% ammonium hydroxide solution before testing. Chambers were back-lit with fluorescent light with a white noise generator providing 70 dB of background noise. […] Twenty-four hours later, contextual memory was assessed by placing the mice back into the freshly rescented (0.3% Ammonium hydroxide) conditioning chambers in which they were trained, for a 4-min test period in the absence of footshock. Conditioned fear to the context was assessed by measuring the freezing response according to the methods of Fanselow and Bolles (1979). […] An observer, blind to the drug(s) used, scored each mouse every 8 s, for a total of 4 min, for presence or absence of freezing. […]

| Structure (SMILES) | fear conditioned contextual memory, impairment by scopolamine (in words) | reversal of scopolamine induced memory deficits (in words) | reversal of scopolamine induced memory deficits (in words) (listed as XLi 356) | reversal of scopolamine induced memory deficits (in words) (listed as Xli356) |
| --- | --- | --- | --- | --- |
| COCc1ncn2c1CN(C)C(=O)c1cc(Cl)ccc1-2 [PWZ-029, methyl(8-chloro-5,6-dihydro-5-methyl-6-oxo-4H-imidazo[1,5-α][1,4]benzodiazepin-3-yl)methyl ether] | attenuation of contextual memory impairment | reverse scopolamine induced memory deficits | – | – |
| CCc1ccc2c(c1)C(=O)N(C)Cc1c(C(=O)OCCCOC(=O)c3ncn4c3CN(C)C(=O)c3cc(CC)ccc3-4)ncn1-2 [XLi356, 1,3-Bis(8-ethyl-5,6-dihydro-5-methyl-6-oxo-4H-imidazo[1,5a][1,4]benzodiazepine-3-carboxy)propyl diester] | attenuates the impairment of memory | – | potently reverse scoploamine induced memory deficiencies | reverse scopolamine induced memory deficits |
